From the CheMixHub viscosity set

Assay: xn = mol fraction of the nth substance listed

CS(C)=O + OCCO
viscosity [mPa·s]
Conditions | 298.15 K | 303.15 K | 308.15 K
100 kPa, x1 = 0.105 | 12.96 | 10.76 | 8.98
100 kPa, x1 = 0.1987 | 10.61 | 8.91 | 7.45
100 kPa, x1 = 0.2971 | 8.58 | 7.31 | 6.14
100 kPa, x1 = 0.3911 | 6.94 | 5.97 | 5.09
100 kPa, x1 = 0.5099 | 5.28 | 4.59 | 4.03
100 kPa, x1 = 0.5932 | 4.45 | 3.93 | 3.46
100 kPa, x1 = 0.702 | 3.68 | 3.26 | 2.91
100 kPa, x1 = 0.7931 | 3.21 | 2.86 | 2.58
100 kPa, x1 = 0.9003 | 2.74 | 2.46 | 2.21
101 kPa, x1 = 0.0799 | – | – | 10.2
101 kPa, x1 = 0.206 | – | – | 9.506
101 kPa, x1 = 0.3426 | – | – | 8.715
101 kPa, x1 = 0.4387 | – | – | 8.143
101 kPa, x1 = 0.5397 | – | – | 7.399
101 kPa, x1 = 0.6459 | – | – | 6.235
101 kPa, x1 = 0.7517 | – | – | 4.953
101 kPa, x1 = 0.8456 | – | – | 3.731
101 kPa, x1 = 0.9271 | – | – | 2.599
101 kPa, x2 = 0.0621 | 2.42 | 2.19 | 1.98
101 kPa, x2 = 0.1227 | 3.05 | 2.66 | 2.43
101 kPa, x2 = 0.1819 | 4.26 | 3.66 | 3.21
101 kPa, x2 = 0.2394 | 5.61 | 4.72 | 4.02
101 kPa, x2 = 0.2958 | 7.14 | 5.91 | 4.88
101 kPa, x2 = 0.3504 | 8.45 | 7.01 | 5.72
101 kPa, x2 = 0.404 | 9.69 | 7.96 | 6.43
101 kPa, x2 = 0.4562 | 10.8 | 8.81 | –
101 kPa, x2 = 0.5076 | 11.7 | 9.54 | –
101 kPa, x2 = 0.5568 | 12.6 | 10.2 | –
101 kPa, x2 = 0.6061 | 13.3 | 10.7 | –
101 kPa, x2 = 0.6537 | 14 | 11.2 | –
101 kPa, x2 = 0.7004 | 14.6 | 11.6 | –
101 kPa, x2 = 0.7461 | 15.1 | 12 | –
101 kPa, x2 = 0.7906 | 15.5 | 12.4 | –
101 kPa, x2 = 0.8342 | 16 | 12.8 | –
101 kPa, x2 = 0.8769 | 16.5 | 13.1 | –
101 kPa, x2 = 0.9189 | 16.9 | 13.4 | –
101 kPa, x2 = 0.9599 | 17.3 | 13.7 | –
